Source: article PMC5947850 (ACS infectious diseases, 2017)
“And” between values parts separate entries of the source, which are not always exact repeats. Equal entries are not always repeated. Where two headings read alike, the source gives them in different places. Marks after values point to notes of the source that are not given here.

Key:
in vitro = in vitro ADME; details: human, plasma
[1] = biological target: T1, P. falciparum cytochrome bc1 (Plasmodium falciparum, UniProt Q02768); details: read-out: P. falciparum cytochrome bc1 EC50, cited from earlier work
T1 sequence (Q02768 1-376): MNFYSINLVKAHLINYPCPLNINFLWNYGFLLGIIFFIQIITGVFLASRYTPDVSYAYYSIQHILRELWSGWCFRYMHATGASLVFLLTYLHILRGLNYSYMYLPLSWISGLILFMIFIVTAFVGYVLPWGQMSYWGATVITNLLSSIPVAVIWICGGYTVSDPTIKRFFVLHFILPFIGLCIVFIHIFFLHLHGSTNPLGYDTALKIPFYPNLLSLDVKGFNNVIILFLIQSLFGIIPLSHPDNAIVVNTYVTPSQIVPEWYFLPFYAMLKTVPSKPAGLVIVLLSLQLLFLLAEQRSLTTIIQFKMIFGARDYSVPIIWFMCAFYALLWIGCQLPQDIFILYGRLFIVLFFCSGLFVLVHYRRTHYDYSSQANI

Human cytochrome bc1 [2] = biological target: T2, Human cytochrome bc1 (Homo sapiens, UniProt P00156); test: Human cytochrome bc1 inhibition; assay type: biochemical; details: read-out: Human cytochrome bc1 EC50
[3] = tested on: blood-stage Plasmodium yoelii; test: Modified 4-day suppression test in mice; assay type: in vivo; details: 4-day Peters Test
P. yoelii = test: Single dose cure of patent infection in mice; assay type: in vivo; details: dose required to clear patent infection without recrudescence for 30 days post-infection, PEG-400
[4] = tested on: P. falciparum Dd2 (chloroquine resistant); test: 72 h SYBR Green I assay, P. falciparum Dd2; assay type: cell-based; details: Plasmodium falciparum, DD2, 72 h, read-out: In vitro activity vs. P. falciparum IC50, Dd2
[5] = tested on: P. falciparum D6 (drug sensitive); test: 72 h SYBR Green I assay, P. falciparum D6; assay type: cell-based; details: Plasmodium falciparum, D6, 72 h, read-out: In vitro activity vs. P. falciparum IC50, D6
[6] = tested on: P. falciparum Tm90-C2B (Chloroquine and Atovaquone resistant); test: 72 h SYBR Green I assay, P. falciparum Tm90-C2B; assay type: cell-based; details: Plasmodium falciparum, TM90, 72 h, read-out: In vitro activity vs. P. falciparum IC50, C2B
[7] = tested on: luciferase-transfected P. berghei sporozoites; assay type: in vivo, C57BL/6 albino mice; details: 24 hours prior to sporozoite inoculation
HepG2 cells = test: Mitochondrial toxicity, CellTiter-Glo ATP in galactose medium; assay type: cell-based, human; details: 72 hour incubation
Human cytochrome bc1 [8] = biological target: T2, Human cytochrome bc1; details: read-out: Human cytochrome bc1 EC50; ref Nilsen, et al. 14; cited from earlier work
[9] = tested on: luciferase-transfected P. berghei sporozoites; details: dosed 1 hour prior to sporozoite inoculation; cited from earlier work

SMILES: CC(C)[N+](C)(CCOC(=O)C1c2ccccc2Oc2ccccc21)C(C)C [Propantheline bromide]
- half-life at 1 μM (in vitro): 37.5 min

SMILES: CCOC(=O)Oc1c(-c2ccc(Oc3ccc(OC(F)(F)F)cc3)cc2)c(C)nc2cc(OC)c(Cl)cc12 [ELQ-337]
- EC50 ([1]; ref Miley, et al. 26): 10 µM
- EC50 (Human cytochrome bc1 [2]): > 10 µM

SMILES: CCN(CC)CCCC(C)Nc1ccnc2cc(Cl)ccc12 (stereo not drawn) [CQ, chloroquine]
- In vivo efficacy (oral) P. yoelii NRD (non-recrudescence dose) [3]: >64 mg/kg/day
- In vivo efficacy (oral) P. yoelii Single Dose Cure (P. yoelii): >64 mg/kg/day
- IC50 [4]: 0.14 µM
- IC50 [5]: 0.01 µM
- IC50 [6]: 0.098 µM

SMILES: COc1cc2[nH]c(C)c(-c3ccc(Oc4ccc(OC(F)(F)F)cc4)cc3)c(=O)c2cc1Cl [ELQ-300]
- Mice with positive IVIS signal at 24 hours ([7]; 0.1 mg/kg oral): 2/5
- Mice with positive IVIS signal at 48 hours ([7]; 0.1 mg/kg oral): 5/5
- Mice with no parasitemia ([7]; 1 mg/kg oral): 4/5
- Mice with no parasitemia ([7]; 3 mg/kg oral): 5/5
- Parasite burden in the liver (IVIS) ([7]; 3 and 1 mg/kg oral): no detectable parasite burden in the liver
- In vivo efficacy (oral) P. yoelii NRD (non-recrudescence dose) [3]: 1 mg/kg/day and 1.0 mg/kg/day
- EC50 ([1]; ref Nilsen, et al. 14): 0.00056 µM
- Highest concentration without inhibition or alteration of ATP production (HepG2 cells): ≥ 25 µM
- EC50 (Human cytochrome bc1 [8]): > 10 µM
- In vivo efficacy (oral) P. yoelii Single Dose Cure (P. yoelii): >20 ^e mg/kg/day
- Fully protective dose against liver stage infection [9]: ≤ 0.03 mg/kg

SMILES: CCOC(=O)OC(C)Oc1c(-c2ccc(Oc3ccc(OC(F)(F)F)cc3)cc2)c(C)nc2cc(OC)c(Cl)cc12 (stereo not drawn) [ELQ-387]
- In vivo efficacy (oral) P. yoelii Single Dose Cure (P. yoelii): 5.0 mg/kg/day

SMILES: COc1cc2nc(C)c(-c3ccc(Oc4ccc(OC(F)(F)F)cc4)cc3)c(OCOC(=O)OC(C)C)c2cc1Cl [ELQ-330]
- In vivo efficacy (oral) P. yoelii Single Dose Cure (P. yoelii): 5.0 mg/kg/day
